Results published in US11932606B2, “Anti-cancer/anti-fibrosis compounds” (THE REGENTS OF THE UNIVERSITY OF CALIFORNIA, priority 2017, dated 2024).
Like-named read-outs stand apart in the source and are kept apart here.

Legend:
MOLM-14 xenograft tumors = assay: Western analysis / pharmacodynamics of MOLM-14 xenograft tumors; assay type: in vivo, mouse
Procedure: For tissue: Tissue was homogenized and protein was extracted using T-per Mammalian protein extraction reagent (78510, Thermo Fisher Scientific). In the pharmacodynamics study, mice bearing tumors were treated with vehicle, 10 mg/kg, 50 mg/kg and 100 mg/kg for 6 hrs. After 6 hrs of treatment, tumors were removed for further procedure.
(§1) Proteins were separated on SDS-PAGE and transferred to nitrocellulose membrane. Immunoblotting were performed using specific antibodies: phosphor-Stat1-pS727 (8826, Cell signaling), total-Stat1 (14994, Cell signaling), Phospho-Stat3 (Tyr705) (9131, Cell signaling), Stat3 (9139, Cell signaling), pSTAT5-pS726 (ab128896, abcam), stat5 (94205, cell signaling), YAP (14074, Cell signaling), CYR61(14479, Cell signaling), CTGF (ab6992, Abcam), c-Myc (13987, Cell signaling), Mcl-1 (94296, Cell signaling) and GAPDH (AM4300, Invitrogen). (FIG. 1A, FIG. 1B, FIG. 1C). MV-4-11 cancer cell line was treated with compound 29 at various concentrations (30 nM up to 10 μM) for 24 hours and 48 hours, respectively.
Tumors from the MOLM-14 xenograft study were collected and processed for western analysis. In the western results showing above, the level of p-STAT1 (Ser727) in the three mice samples from the treated group were much lower compared to that in the three mice samples from the control group.

MOLM-14 = assay: AML cell viability (CellTiter-Glo, day 7); assay type: cell-based; conditions: Homo sapiens
Procedure: (§2) MV-4-11 cell (ATCC CRL-9591), RS4;11 (ATCC CRL-1873) and TG-1 (ATCC CRL1608) were acquired from ATCC. MOLM14 (ACC777) was acquired from DSMZ. All cells were plated (96-well) in triplicate at 5000 cells per well for testing (n=3) with compound. On day 3, an equal volume for all wells was split-back with fresh media and compound. On day 7, the CellTiter-Glo Luminescent Cell Viability Assay (Promega) was performed to measure the response. For cell viability assay, two independent experiments have been done.

RS4;11 = assay: AML cell viability (CellTiter-Glo, day 7); assay type: cell-based; conditions: Homo sapiens
Procedure: as §2

TG-1 = assay: AML cell viability (CellTiter-Glo, day 7); assay type: cell-based
Procedure: as §2

MV-4-11 = assay: AML cell viability (CellTiter-Glo, day 7); assay type: cell-based; conditions: Homo sapiens
Procedure: as §2

MV-4-11 xenograft = assay: MV-4-11 mouse xenograft model; assay type: in vivo; conditions: 50 mg/kg orally b.i.d., 21 days
Procedure: 40 CR female NCr nu/nu mice (Charles River Laboratories) were injected with 1×10^7 MV-4-11 cells in 50% matrigel s.c. in flank. Cell Injection Volume is 0.1 mL/mouse for MV-4-11 cells. Age of mice at start date is 8 to 12 weeks. Perform a pair match when tumors grow after two weeks and begin treatment. Compound 29 was given orally twice a day for 21 consecutive days. Body weight and tumor size were measured every three days. In the MV-4-11 xenograft model, mice were treated with compound 29 with 50 mg/kg for 21 days (orally, b.i.d). The tumor volume from control and vehicle group were measured, compared. […] Body weights of mice in both groups were measured and plotted.

[1] = tested on: colorectal cancer cell line SW620; assay: Synergy experiment of Compound 29 and 2DG, cell viability; assay type: cell-based
Procedure: SW620 cells were plated (96-well) in triplicate at 500 cells per well for testing (n=3) with 5 mM 2-DG and different concentrations of compound 29 (0-10 uM). Medium was changed once on day 3. On day 7, the CellTiter-Glo Luminescent Cell Viability Assay (Promega) was performed to measure the response. For cell viability assay, two independent experiments have been done.

MV-4-11 cancer cell line = assay: Western blot of treated cells; assay type: cell-based
Procedure: For cell lines: All cells were plated (6-well) at 5×10^5 cells per well with medium containing 1% FBS overnight. And then Compound 29 was added in different concentrations with medium containing 1% FBS. After 16 hours, cells were lysed in M-per Mammalian Protein Extraction Reagent (78501, Thermo Fisher Scientific) containing protease and phosphatase inhibitors (88669, Thermo Fisher Pierce). Total protein concentration was measured using the Pierce BCA protein Assay Kit (#23227).
as §1

[2] = tumors from MOLM-14 xenograft study, Western

IC50 (MOLM-14; 168 h, MOLM-14, day 7, read-out: Cell viability IC50): < 1000 nM | IC50 (MOLM-14; MOLM-14, text statement, read-out: potency in cell viability assay): < 1000 nM | IC50 (RS4;11; 168 h, RS4;11, day 7, read-out: Cell viability IC50): < 1000 nM | IC50 (RS4;11; RS4;11, text statement, read-out: potency in cell viability assay): < 1000 nM | IC50 (MV-4-11; MV4-11, 168 h, MV-4-11, day 7, read-out: Cell viability IC50): < 1000 nM | IC50 (MV-4-11; MV4-11, MV-4-11, text statement, read-out: potency in cell viability assay): < 1000 nM | IC50 ([1]; Homo sapiens, SW-620, 168 h, SW620, without 2DG, day 7, read-out: Cell viability IC50 of Compound 29 alone): 1 to 10 µM
SMILES: Nc1nccc2c(Br)cc3cc(C(=O)[O-])ccc3c12.[Na+] [Compound 29, Sodium 1-amino-5-bromobenzo[h]isoquinoline-8-carboxylate]
p-STAT1 (Ser727) in tumors, pharmacodynamics study (MOLM-14 xenograft tumors; 10 mg/kg, 50 mg/kg and 100 mg/kg, 6 hrs): a dose response (10 mg/kg, 50 mg/kg and 100 mg/kg) of down regulation | level of p-STAT1 (Ser727) in tumors vs control group (MOLM-14 xenograft tumors; [2]): much lower | level of p-STAT5(Ser726) in tumors vs control group (MOLM-14 xenograft tumors; [2]): lower level | IC50 (TG-1; TG1, 168 h, TG-1, day 7, read-out: Cell viability IC50): < 1000 nM | IC50 (TG-1; TG1, TG-1, text statement, read-out: potency in cell viability assay): < 1000 nM | Body weight (MV-4-11 xenograft): didn't suffer from weight loss | Tumor volume vs control group (MV-4-11 xenograft; last measurement point): only about half the size of tumors from the control group | Synergy with 2DG in viability assay ([1]; SW620, 5 mM 2DG): synergizes with 2DG | level of p-STAT1(Ser727), p-STAT3(Tyr705), p-STAT5(Ser726) (MV-4-11 cancer cell line; MV-4-11, 30 nM up to 10 μM, 24 hours and 48 hours): dose-response down regulation | level of YAP, CYR61, CTGF, C-MYC, and MCL-1 (MV-4-11 cancer cell line; MV-4-11, 48 hours): down regulate
